Source: publication PMC6066535, “Polypharmacology of Berberine Based on Multi-Target Binding Motifs” (Frontiers in Pharmacology, 2018)

How the values were obtained:
BACE1 (beta-secretase 1) [1] = target: T1, BACE1 (beta-secretase 1) (Homo sapiens, UniProt P56817); assay: SPR (Biacore T200, steady-state affinity); type: binding
T1 construct: commercial BACE1 enzyme (Sigma); amine-coupled on CM5 chip for SPR, free enzyme in FRET assay

[2] = target: T2, Aβ1-42 (amyloid-β1-42) oligomer (Homo sapiens, UniProt P05067); assay: SPR (Biacore T200, steady-state affinity); type: binding
T2 construct: gene APP; commercial 42-residue peptide (Sigma), cut from amyloid precursor protein (APP residues 672-713); oligomer, amine-coupled on CM5 chip

BACE1 (beta-secretase 1) [3] = target: T1, BACE1 (beta-secretase 1); assay: FRET substrate cleavage assay (Sigma kit); type: biochemical

T1 sequence (P56817 46-501): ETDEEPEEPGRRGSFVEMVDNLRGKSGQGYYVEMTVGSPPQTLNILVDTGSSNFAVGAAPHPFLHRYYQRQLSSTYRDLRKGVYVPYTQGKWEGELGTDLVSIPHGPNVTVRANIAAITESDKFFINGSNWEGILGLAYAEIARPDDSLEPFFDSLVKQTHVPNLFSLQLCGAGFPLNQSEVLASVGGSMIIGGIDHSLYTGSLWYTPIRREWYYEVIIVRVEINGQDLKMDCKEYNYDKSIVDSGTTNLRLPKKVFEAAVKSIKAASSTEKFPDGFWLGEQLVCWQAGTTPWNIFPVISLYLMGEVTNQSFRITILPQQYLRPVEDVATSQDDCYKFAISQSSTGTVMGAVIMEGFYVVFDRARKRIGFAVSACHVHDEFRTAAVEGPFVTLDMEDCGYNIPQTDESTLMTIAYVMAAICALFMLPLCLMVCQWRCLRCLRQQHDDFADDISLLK
T2 sequence (P05067 672-713): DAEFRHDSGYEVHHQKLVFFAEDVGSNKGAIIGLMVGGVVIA

For `COc1ccc2cc3[n+](cc2c1OC)CCc1cc2c(cc1-3)OCO2` [berberine], which Kd (BACE1 (beta-secretase 1) [1]) is on record?
The Kd was 1.26 µM.

And the Kd [2]?
The Kd was 1.49 µM.

What about the IC50 (BACE1 (beta-secretase 1) [3]) of the same molecule?
The IC50 was 63 µM.
